25 compounds from US8642585B2, “Indanyloxydihydrobenzofuranylacetic acids” (Boehringer Ingelheim International GmbH, priority 2012, dated 2014) can be followed below.

The term EC50 denotes the concentration needed to bring the measured effect to its halfway point. Low values mean greater potency, high ones weaker potency.

This test has as its target human GPR40 receptor (Homo sapiens, UniProt O14842). Kind of test: Assay II: IP1 accumulation (IPOne HTRF) in 1321N1 cells stably expressing human GPR40. Format: cell-based. Particulars: 1321N1 cells expressing human GPR40, stimulation 1 h at 37° C., 5% CO2, LiCl 50 mM. As to the method: IP1 accumulation measurements using the IPOne assay system—1321N1 cells stably expressing human GPR40 receptor (Euroscreen, Belgium) are seeded 24 h before the assay in white 384-well plates in culture medium containing 10% FCS, 1% Na-Pyruvate and 400 μg/mL G418. IP1 is assayed according to the manufacturers description (Cisbio Bioassays, France). In brief, the assay is started by substitution of the culture medium by stimulation buffer (Hepes 10 mM, CaCl2 1 mM, MgCl2 0.5 mM, KCl 4.2 mM, NaCl 146 mM, glucose 5.5 mM and LiCl 50 mM, pH 7.4). Cells are stimulated for 1 h at 37° C., 5% CO2 by addition of the compounds that are diluted in stimulation buffer containing LiCl. Assays are stopped by adding HTRF-conjugates (IP1-d2 and Anti-IP1 cryptate Tb) and lysis buffer, provided by the manufacturer. After an incubation time of 1 h at room temperature plates are measured using an EnVision™, Perkin Elmer. The obtained fluorescence ratios at 665/615 nM are then used to calculate the pEC50 values using Assay Explorer 3.3 Software (Accelrys, Inc.) by interpolation using an IP1 reference curve and subsequent sigmoidal curve fitting allowing for a variable hill slope.
Background: In TR-FRET formats the signal depends on donor and acceptor labels being close together.

Sequence of human GPR40 receptor (O14842 whole entry): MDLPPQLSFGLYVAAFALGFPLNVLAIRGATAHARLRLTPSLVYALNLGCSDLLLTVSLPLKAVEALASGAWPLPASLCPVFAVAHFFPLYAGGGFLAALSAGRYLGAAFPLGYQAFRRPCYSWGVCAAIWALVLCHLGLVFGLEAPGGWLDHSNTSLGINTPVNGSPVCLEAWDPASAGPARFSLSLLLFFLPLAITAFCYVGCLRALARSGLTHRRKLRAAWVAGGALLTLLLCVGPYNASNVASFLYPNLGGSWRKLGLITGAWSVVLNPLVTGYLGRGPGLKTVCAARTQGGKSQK

In turn, `Cc1cc(OC[C@@H](C)CS(C)(=O)=O)cc(C)c1-c1ccc(F)c2c1CC[C@H]2Oc1ccc2c(c1)OC[C@H]2CC(=O)O` [Example 36, ((S)-6-{(R)-7-Fluoro-4-[4-((R)-3-methanesulfonyl-2-methyl-propoxy)-2,6-dimethyl-phenyl]-indan-1-yloxy}-2,3-dihydro-benzofuran-3-yl)-acetic acid] registered a half-maximal effective concentration (EC50) of 8 nM.
For the compound `Cc1cc(OCC2(O)CCS(=O)(=O)CC2)cc(C)c1-c1ccc(F)c2c1CC[C@H]2Oc1ccc2c(c1)OC[C@H]2CC(=O)O` [Example 69, 2-((S)-6-((R)-7-Fluoro-4-(4-((1,1-dioxo-4-hydroxytetrahydro-2H-thiopyran-4-yl)methoxy)-2,6-dimethylphenyl)-2,3-dihydro-1H-inden-1-yloxy)-2,3-dihydrobenzofuran-3-yl)acetic acid], the EC50 was 8 nM.
Regarding `Cc1cc(OCc2ccn(C)c(=O)c2)cc(C)c1-c1ccc(F)c2c1CC[C@H]2Oc1ccc2c(c1)OC[C@H]2CC(=O)O` [Example 146, 2-((S)-6-((R)-4-(2,6-dimethyl-4-((1-methyl-2-oxo-1,2-dihydropyridin-4-yl)methoxy)phenyl)-7-fluoro-2,3-dihydro-1H-inden-1-yloxy)-2,3-dihydrobenzofuran-3-yl)acetic acid], the EC50 is 7 nM.
The compound “((S)-6-{(R)-4-[4-((R)-1,1-Dioxo- tetrahydro-1-thiophen-3- ylmethoxy)-2,6-dimethyl- phenyl]-7-fluoro-indan-1- yloxy}-2,3-dihydro-benzofuran- 3-yl)-acetic acid [Example 47]” gave a 50% effective concentration (EC50) of 8 nM.
The compound `Cc1cc(CCC(C)(C)O)cc(C)c1-c1ccc(F)c2c1CC[C@H]2Oc1ccc2c(c1)OC[C@H]2CC(=O)O` [Example 67, 2-((S)-6-((R)-7-Fluoro-4-(4-(3-hydroxy-3-methylbutyl)-2,6-dimethylphenyl)-2,3-dihydro-1H-inden-1-yloxy)-2,3-dihydrobenzofuran-3-yl)acetic acid] returned an EC50 of 7 nM.
The figure for `O=C(O)C[C@@H]1COc2cc(O[C@@H]3CCc4c(-c5cccnc5C5CCOCC5)ccc(F)c43)ccc21` [Example 110, {(S)-6-[(R)-7-Fluoro-4-(2-tetrahydropyran-4-yl-pyridin-3-yl)-indan-1-yloxy]-2,3-dihydro-benzofuran-3-yl}-acetic acid] is 351 nM.
The figure for `Cc1cc(-c2cnc(C3CC3)cn2)cc(C)c1-c1ccc(F)c2c1CC[C@H]2Oc1ccc2c(c1)OC[C@H]2CC(=O)O` [Example 123, {(S)-6-[(R)-4-(2,6-Dimethyl-4-(5-cyclopropyl-pyrazin-2-yl)-phenyl)-7-fluoro-indan-1-yloxy]-2,3-dihydro-benzofuran-3-yl}-acetic acid] is 7 nM; for `Cc1cc(CCNS(C)(=O)=O)cc(C)c1-c1ccc(F)c2c1CC[C@H]2Oc1ccc2c(c1)OC[C@H]2CC(=O)O` [Example 74, 2-((S)-6-((R)-4-(2,6-dimethyl-4-(2-(methylsulfonamido)ethyl)phenyl)-7-fluoro-2,3-dihydro-1H-inden-1-yloxy)-2,3-dihydrobenzofuran-3-yl)acetic acid] it is 40 nM; for `Cc1cc(OC[C@@H]2CCS(=O)(=O)C2)cc(C)c1-c1ccc(F)c2c1CC[C@H]2Oc1ccc2c(c1)OC[C@H]2CC(=O)O` (single isomer, unassigned) [Example 46] it is 7 nM.
As to `Cc1cc(-c2ccc(=O)n(C)c2)cc(C)c1-c1ccc(F)c2c1CC[C@H]2Oc1ccc2c(c1)OC[C@H]2CC(=O)O` [Example 85, 2-((S)-6-((R)-4-(2,6-Dimethyl-4-(1-methyl-6-oxo-1,6-dihydropyridin-3-yl)phenyl)-7-fluoro-2,3-dihydro-1H-inden-1-yloxy)-2,3-dihydrobenzofuran-3-yl)acetic acid], a half-maximal effect (EC50) was put at 7 nM.
For `Cc1cc(-c2nnn(C(C)(C)CO)n2)cc(C)c1-c1ccc(F)c2c1CC[C@H]2Oc1ccc2c(c1)OC[C@H]2CC(=O)O` [Example 99, 2-((S)-6-((R)-7-Fluoro-4-(4-(2-(1-hydroxy-2-methylpropan-2-yl)-2H-tetrazol-5-yl)-2,6-dimethylphenyl)-2,3-dihydro-1H-inden-1-yloxy)-2,3-dihydrobenzofuran-3-yl)acetic acid] the value was 4 nM; for `CN(C)C(=O)c1ccccc1-c1ccc(F)c2c1CC[C@H]2Oc1ccc2c(c1)OC[C@H]2CC(=O)O` [Example 102, 2-((3S)-6-((1R)-4-(2-(Dimethylcarbamoyl)phenyl)-7-fluoro-2,3-dihydro-1H-inden-1-yloxy)-2,3-dihydrobenzofuran-3-yl)acetic acid], 2240 nM; for `CCc1ccc(-c2cc(C)c(-c3ccc(F)c4c3CC[C@H]4Oc3ccc4c(c3)OC[C@H]4CC(=O)O)c(C)c2)nn1` [Example 125, {(S)-6-[(R)-4-(2,6-Dimethyl-4-(6-ethyl-pyridazin-3-yl)-phenyl)-7-fluoro-indan-1-yloxy]-2,3-dihydro-benzofuran-3-yl}-acetic acid], 4 nM.
For `CC(=O)NCCOc1cc(C)c(-c2ccc(F)c3c2CC[C@H]3Oc2ccc3c(c2)OC[C@H]3CC(=O)O)c(C)c1` [Example 73, 2-((S)-6-((R)-4-(4-(2-Acetamidoethoxy)-2,6-dimethylphenyl)-7-fluoro-2,3-dihydro-1H-inden-1-yloxy)-2,3-dihydrobenzofuran-3-yl)acetic acid] the value was 13 nM; for `Cc1cc(OCC2(O)CC2)cc(C)c1-c1ccc(F)c2c1CC[C@H]2Oc1ccc2c(c1)OC[C@H]2CC(=O)O` [Example 75, 2-((S)-6-((R)-7-Fluoro-4-(4-((1-hydroxycyclopropyl)methoxy)-2,6-dimethylphenyl)-2,3-dihydro-1H-inden-1-yloxy)-2,3-dihydrobenzofuran-3-yl)acetic acid], 17 nM.
For `Cc1cc(-c2cnn(CC(C)(C)O)c2)cc(C)c1-c1ccc(F)c2c1CC[C@H]2Oc1ccc2c(c1)OC[C@H]2CC(=O)O` [Example 83, 2-((S)-6-((R)-7-Fluoro-4-(4-(1-(2-hydroxy-2-methylpropyl)-1H-pyrazol-4-yl)-2,6-dimethylphenyl)-2,3-dihydro-1H-inden-1-yloxy)-2,3-dihydrobenzofuran-3-yl)acetic acid] the value was 6 nM.
`Cc1cc(OCC(C)(C)C#N)cc(C)c1-c1ccc(F)c2c1CC[C@H]2Oc1ccc2c(c1)OC[C@H]2CC(=O)O` [Example 64, 2-((S)-6-((R)-4-(4-(2-Cyano-2-methylpropoxy)-2,6-dimethylphenyl)-7-fluoro-2,3-dihydro-1H-inden-1-yloxy)-2,3-dihydrobenzofuran-3-yl)acetic acid] displayed an EC50 of 8 nM.
For the compound `Cc1cc(O[C@H]2CCCN(S(C)(=O)=O)C2)cc(C)c1-c1ccc(F)c2c1CC[C@H]2Oc1ccc2c(c1)OC[C@H]2CC(=O)O` [Example 50, ((S)-6-{(R)-7-Fluoro-4-[4-((S)-1-methanesulfonyl-piperidin-3-yloxy)-2,6-dimethyl-phenyl]-indan-1-yloxy}-2,3-dihydro-benzofuran-3-yl)-acetic acid], the response was half-maximal at 20 nM (EC50).
For `Cc1cc(OCc2cnn(C)c2)cc(C)c1-c1ccc(F)c2c1CC[C@H]2Oc1ccc2c(c1)OC[C@H]2CC(=O)O` [Example 152, 2-((S)-6-((R)-4-(2,6-dimethyl-4-((1-methyl-1H-pyrazol-4-yl)methoxy)phenyl)-7-fluoro-2,3-dihydro-1H-inden-1-yloxy)-2,3-dihydrobenzofuran-3-yl)acetic acid] the value was 19 nM; for `COCc1cc(OCC2(C)COC2)cc(COC)c1-c1ccc(F)c2c1CC[C@H]2Oc1ccc2c(c1)OC[C@H]2CC(=O)O` [Example 82, 2-((S)-6-((R)-4-(2,6-Bis(methoxymethyl)-4-((3-methyloxetan-3-yl)methoxy)phenyl)-7-fluoro-2,3-dihydro-1H-inden-1-yloxy)-2,3-dihydrobenzofuran-3-yl)acetic acid], 14 nM; for `Cc1cc(-c2ccncc2)cc(C)c1-c1ccc(F)c2c1CC[C@H]2Oc1ccc2c(c1)OC[C@H]2CC(=O)O` [Example 104, {(S)-6-[(R)-4-(2,6-Dimethyl-4-pyridin-4-yl-phenyl)-7-fluoro-indan-1-yloxy]-2,3-dihydro-benzofuran-3-yl}-acetic acid], 7 nM.
For `O=C(O)C[C@@H]1COc2cc(O[C@@H]3CCc4c(-c5cccnc5N5CCCOCC5)ccc(F)c43)ccc21` [Example 127, {(S)-6-[(R)-7-Fluoro-4-(2-[1,4]oxazepan-4-yl-pyridin-3-yl)-indan-1-yloxy]-2,3-dihydro-benzofuran-3-yl}-acetic acid], the concentration giving a half-maximal response (EC50) stood at 48 nM.
Compound `O=C(O)C[C@@H]1COc2cc(O[C@@H]3CCc4c(-c5cccnc5-c5ccccc5)ccc(F)c43)ccc21` [Example 106, {(S)-6-[(R)-7-Fluoro-4-(2-phenyl-pyridin-3-yl)-indan-1-yloxy]-2,3-dihydro-benzofuran-3-yl}-acetic acid] gave an EC50 of 59 nM.
The figure for `Cc1ccc(-c2cc(C)c(-c3ccc(F)c4c3CC[C@H]4Oc3ccc4c(c3)OC[C@H]4CC(=O)O)c(C)c2)cn1` [Example 117, {(S)-6-[(R)-4-(2,6-Dimethyl-4-(6-methyl-pyridin-3-yl)-phenyl)-7-fluoro-indan-1-yloxy]-2,3-dihydro-benzofuran-3-yl}-acetic acid] is 2 nM.
The compound `Cc1cc(-c2ccncn2)cc(C)c1-c1ccc(F)c2c1CC[C@H]2Oc1ccc2c(c1)OC[C@H]2CC(=O)O` [Example 91, 2-((S)-6-((R)-4-(2,6-Dimethyl-4-(pyrimidin-4-yl)phenyl)-7-fluoro-2,3-dihydro-1H-inden-1-yloxy)-2,3-dihydrobenzofuran-3-yl)acetic acid] returned an EC50 of 3 nM.
